The source of these data is article PMC3527569, “Anti-Inflammatory and Vasoprotective Activity of a Retroviral-Derived Peptide, Homologous to Human Endogenous Retroviruses: Endothelial Cell Effects” (PLoS ONE, 2012).

Entries after “also recorded” stand apart in the source; their conditions may differ. Where no end group is shown, it is not given here.

For series [1], the system named is inflammatory accumulation of monocytes/macrophages. As to the kind of experiment: Mouse NaIO4-induced inflammatory peritonitis model. The class given is in vivo, mouse (CD-1). The following applies: monocyte/macrophage accumulation at 48 h; for Dose Achieving Maximum Inhibition (nmoles) / Dose Achieving Maximum Inhibition (µg): CD-1 mice, agent s.c. 24 h before i.p. NaIO4; for Maximum Inhibition (%): groups of five CD-1 mice, agent s.c. 24 h before i.p. NaIO4 (5 mM, 1.0 ml), one experiment; for IC50 (nmoles) / IC50 (µg): in vivo dose per mouse, s.c. 24 h before i.p. NaIO4. Here is the method:
Effects of test compounds on the inflammatory accumulation of monocytes/macrophages or neutrophils in vivo were determined using a mouse peritonitis model. Briefly, groups of five 6–8 week old CD-1 outbred mice (Charles River; Raleigh, NC) were injected intraperitoneally (i.p.) with 1.0 ml of a sterile inflammatory stimulus (NaIO4; 5 mM in sterile isotonic saline; Sigma; St. Louis, MO). This procedure results in a dramatic accumulation of neutrophils in the peritoneal cavity which peaks at 6–8 h post injection, followed by an accumulation of monocytes/macrophages which peaks at 48–72 h post injection. Mice were euthanized by CO2 asphyxiation at either 6 h (for neutrophils) or 48 h (for monocyte/macrophages), the peritoneal cavities lavaged with two 10-ml washes of heparinized (10 u/ml; Sigma; St. Louis, MO) HBSS containing 0.1% (w/v) BSA, the washes pooled, and total and differential cells counts determined for each pooled cell suspension. Each test material was evaluated in a group of five mice, each of which was injected subcutaneously in the thigh with 0.2 ml of test material in HBSS 24 h prior to the i.p. injection of the inflammatory stimulus.

A further series deals with carrageenan-induced DIC. The series is described as follows: Mouse carrageenan-induced DIC model, lethality. The class given is in vivo, mouse (CD-1). The settings on record: data not shown. Here is the method: Groups of 10 male CD-1 mice were injected i.p. with 0.25 ml of either vehicle (PBS) or peptide in vehicle at varying times prior to the i.p. injection of 1.0 ml of carrageenan (0.45% [w/v] in PBS; Sigma). In experiments where serum cytokine levels were determined, groups of 5 mice were euthanized at 1-, 2-, 4-, 8-, and 24-h post injection of carrageenan, blood collected by cardiac puncture into heparinized syringes, and the resultant plasma stored at −80°C until assayed by ELISA. […] At 1-, 2-, 4-, and 24-h post injection of carrageenan, five mice from each group were euthanized and heparinized blood samples collected from the heart using heparinized syringes for subsequent determinations of WBC (white blood cell) counts, RBC (red blood cell) counts, or PLT (platelet) counts.

Another series deals with systolic blood pressure. The series is described as follows: SHR rat hypertension model (tail cuff). It counts as in vivo. The following applies: 100 mg/kg orally (gavage), groups of 3 SHR rats, tail cuff, vs 0 h value. Here is the method: As part of a general pharmacological screen, MN10021 was evaluated in a rat model of hypertension by MDS-PanLabs (Bothell, WA). […] Blood pressure measurements were made by tail cuff at 1, 2, and 4 h post administration of test compounds. A decrease of ≥10% of the baseline systolic blood pressure is considered significant in this assay.

Series [2] relates to iNOS (inducible nitric oxide synthase) mRNA. The series is described as follows: RT-PCR of iNOS mRNA in HUVEC. The settings on record: for induction of mRNA for iNOS in HUVEC: 50 µM peptide, 3 h, 37°C, quiescent HUVEC, RT-PCR. The class given is cell-based, human. Here is the method:
(§1) Cells were cultured with various concentrations of test materials, either with or without stimulus, for varying times. The cells were collected, washed and total RNA isolated using the RNeasy Mini Kit (Qiagen; Valencia, CA). Following isolation the RNA was treated with 7 units of DNase I according to the RNase-Free DNase Set (Qiagen; Valencia, CA) protocol. Using these procedures we usually obtained ∼50 µg of total RNA/10^7 cells. cDNA was prepared from the isolated mRNAs and RT-PCR performed on the target cytokines/chemokines/growth factors using appropriate primer pairs and a control primer pair for β-actin (all from R & D Systems; Minneapolis, MN). RT-PCR was generally performed for 30 cycles for β-actin and 35–45 cycles for iNOS and VEGF.

In series [3] the test system is endothelial nitric oxide synthase (eNOS) mRNA. The series is described as follows: RT-PCR of eNOS mRNA in HUVEC. The class given is cell-based, human. The following applies: data not shown. Here is the method: as §1
The next series deals with HUVEC. The series is described as follows: Staurosporine-induced apoptosis in HUVEC (Cell Death Detection ELISA). It counts as cell-based, human. The settings on record: for protection against staurosporine-induced apoptosis: 50 µM peptide 3 h before staurosporine (500 nM), measured 18 h after staurosporine (Figure 11B). Here is the method:
Apoptosis was measured in HUVEC using the Cell Death Detection ELISA^PLUS kit (Roche Diagnostics; Indianapolis, IN) according to the manufacturer's instructions. This assay is based on a quantitative sandwich-enzyme-immunoassay using mouse monoclonal antibodies directed against both DNA and histones, respectively. It allows the specific determination of mono- and oligonucleosomes in the cytoplasmic fraction of cell lysates (apoptosis) and in the supernatant of dying cells (necrosis). The apoptotic index (AI) was calculated as
where treatment refers to use of a known apoptosis- or necrosis-inducing agent (staurosporine, TNF-α).

In another series the test system is dengue virus. The series is described as follows: Vascular leak in liver of mice injected with dengue virus. The settings on record: 1 µg intraperitoneal; dengue virus i.v.; preliminary in vivo studies. Details: species or system mouse.
A further series concerns iNOS mRNA. As to the kind of experiment: iNOS mRNA induction in HUASMC. It counts as cell-based, human. The following applies: compared with MN10021. Here is the method: as §1
For series [4] the following is noted: qualitative ranking of the three peptides.
Series [5] deals with nitrate in HUVEC supernatants. As to the kind of experiment: NO release (nitrate as nitrite) from HUVEC. It counts as cell-based, human. The following applies: 50 µM peptide. Here is the method: HUVEC were grown to 80–90% confluence in 12-well tissue culture plates using defined media provided by Cambrex and supplemented with 10% FBS. Triplicate wells were incubated with either media alone or media containing 50 µM of the indicated peptide. Supernatant samples were removed from each well at 6 h and 24 h post peptide addition and assayed for NO release as measured by the presence of nitrate (converted to nitrite) using a kit supplied by Oxford Biomedical Research (Rochester Hill, MI) according to the manufacturer's instructions.

Series [6] deals with human monocyte chemotactic responses. Also on record: method as in PMID 1634759, PMID 1534759. The settings on record: cited from earlier work.
Series [7] has as its system inflammation. Details: method as in earlier work. The settings on record: cited from earlier work.
For a further series, the system named is lymphocyte proliferation. Also on record: method as in PMID 1634759, PMID 1534759. The settings on record: cited from earlier work.
Series [8] deals with inflammation. Details: method as in earlier work. The following applies: cited from earlier work. The source holds these as a separate data set.

Consider `CC(=O)Nc1ccc(O)cc1` [Acetaminophen, acetaminophen], for which, in series [1], the “Dose Achieving Maximum Inhibition (nmoles)” value stood at 6614 nmol, the “Dose Achieving Maximum Inhibition (µg)” value turned out to be 1000 µg, the “Maximum Inhibition (%)” value was found to be 95% and the “IC50 (nmoles)” value came out at 132 nmol. Besides, in [1], the “IC50 (µg)” value is on record as 20 µg. Moreover, in the series with carrageenan-induced DIC, the “ability to protect mice in DIC model” value is on record as “no success”.

On to `C[C@@H]1C[C@H]2[C@@H]3CCC4=CC(=O)C=C[C@]4(C)[C@@]3(F)[C@@H](O)C[C@]2(C)[C@@]1(O)C(=O)CO` [Dexamethasone], for which, in [1], the “Dose Achieving Maximum Inhibition (nmoles)” value was 204 nmol, the “Dose Achieving Maximum Inhibition (µg)” value came to 80 µg and the “Maximum Inhibition (%)” value amounted to 75%. The “ability to protect mice in DIC model” value in the series with carrageenan-induced DIC is given as “no success”.

Take `O=C(O)Cc1ccccc1Nc1c(Cl)cccc1Cl` [Diclofenac, diclofenac]: in series [1], the “Dose Achieving Maximum Inhibition (nmoles)” value is 314 nmol, the “Dose Achieving Maximum Inhibition (µg)” value is listed as 100 µg, the “Maximum Inhibition (%)” value worked out at 90% and the “IC50 (nmoles)” value was 16 nmol. For the same molecule, the “IC50 (µg)” value in series [1] stood at 5 µg. Moreover, the “ability to protect mice in DIC model” value with carrageenan-induced DIC was “no success”.

Regarding `C[C@](N)(Cc1ccc(O)c(O)c1)C(=O)O` [L-methyldopa, reference compound], in the series on systolic blood pressure, the “decrease in blood pressure at 1 h” value is recorded as 16%, the “decrease in blood pressure at 2 h” value was 23% and the “decrease in blood pressure at 4 h” value was 28%.

`N=C(N)NN` [aminoguanidine]: the “ability to protect mice in DIC model” value in the series on carrageenan-induced DIC is “no success”.

On to `COc1ccc2c(c1)c(CC(=O)O)c(C)n2C(=O)c1ccc(Cl)cc1` [indomethacin], for which the “ability to protect mice in DIC model” value with carrageenan-induced DIC is “no success”.

As to `COc1ccc2cc([C@H](C)C(=O)O)ccc2c1` [naproxen], the “ability to protect mice in DIC model” value in the series on carrageenan-induced DIC is reported as “no success”.

On to `CCN(CC)CCCC(C)Nc1c2ccc(Cl)cc2nc2ccc(OC)cc12` (stereo not shown) [quinacrine], for which the “ability to protect mice in DIC model” value in the series on carrageenan-induced DIC was “no success”.

Take `CN[C@@H]1C[C@H]2O[C@@](C)([C@@H]1OC)n1c3ccccc3c3c4c(c5c6ccccc6n2c5c31)C(=O)NC4` [staurosporine]: the “ability to protect mice in DIC model” value in the series on carrageenan-induced DIC is given as “no success”.

Regarding Ac-GLDLLFLK-NH2 [DUK0005], the “induction of mRNA for iNOS in HUVEC” value in series [2] is listed as “most effective; also recorded: as effective as MN10021”. Besides, the “effect on expression of mRNA for eNOS” value in [3] was “Neither MN10021 nor DUK0005 affected”. Besides, in the series with HUVEC, the “protection against staurosporine-induced apoptosis” value is listed as “significant protection”. Moreover, in the series with HUVEC (2 mM L-NAME 5 h, then 50 µM peptide 3 h, staurosporine 500 nM ON (Figure 12)), the “effect of L-NAME pretreatment on protective effect against staurosporine-induced apoptosis” value was “no effect”. For the same molecule, the “maximal protection against staurosporine-induced apoptosis” value in the series with HUVEC (peptide added 3 h before staurosporine, up to 50 µM peptide, quadruplicate wells (Figure 10A, 10C)) is listed as roughly 40%. Besides, in the series with dengue virus, the “effect on vascular leak in the liver of dengue virus-injected mice” value is “inhibit the vascular leak”. Further, in the series on iNOS mRNA, the “induction of iNOS mRNA in HUASMC” value was “as effective as MN10021”. Besides, the “relative solubility among DUK0004, DUK0005, DUK0006” value (“relative solubility among DUK0004” for short) in series [4] is reported as “intermediate”. The “nitrate release (as measured by nitrite assay) from HUVEC” value in series [5] (6 h or ON) was “induced nitrate release”.

Turning to Ac-GLDLLYLK-NH2 [DUK0007], the “induction of mRNA for iNOS in HUVEC” value in series [2] is “does not induce iNOS”. Also, the “effect on induction of iNOS by DUK005 when combined 1:1” value in series [2] (HUVEC, data not shown) is given as “inhibits the induction of iNOS”. In addition, the “protection against staurosporine-induced apoptosis” value in the series with HUVEC was “no protective effective”. Moreover, in series [5] (6 h and ON incubations), the “nitrate release, percent of MN10021” value is on record as no more than 25%.

GLDLLFLK [DUK0001]: in series [2], the “induction of mRNA for iNOS in HUVEC” value is listed as “weak induction”.

With GLDLLFLK-NH2 [DUK0006], the “induction of mRNA for iNOS in HUVEC” value in series [2] is “comparable”. The “relative solubility among DUK0004” value in series [4] was “most soluble”.

Turning to “LDLLFL [hexapeptide corresponding to the central six amino acids of DUK0005, studied by other investigators]”, in series [6], the “effect on in vitro human monocyte chemotactic responses” value is given as “inhibited”. The “anti-inflammatory activity in mice” value with inflammation [7] is “did not find this hexapeptide to be anti-inflammatory”. Also, the “effect on ligand (CD3) and interleukin-2 (IL-2)-induced lymphocyte proliferation” value with lymphocyte proliferation was “inhibited”. In the series with inflammation [8], the “anti-inflammatory activity in guinea pigs” value is recorded as “did not find this hexapeptide to be anti-inflammatory”.

For acetyl-GLDLLFLK-acetyl [DUK0004], the “induction of mRNA for iNOS in HUVEC” value in series [2] was “comparable”. In addition, in [4], the “relative solubility among DUK0004” value is “least soluble”.
